Results taken from PMC6152416, “Pharmacological and Toxicological Screening of Novel Benzimidazole-Morpholine Derivatives as Dual-Acting Inhibitors” (Molecules : A Journal of Synthetic Chemistry and Natural …, 2017).
Like-named read-outs stand apart in the source and are kept apart here.

Assays:
Format in all cases: biochemical
COX-1 = target: T1, COX-1 (Ovis aries, UniProt P05979); assay: Fluorimetric COX-1 inhibition screening kit (BioVision); details: for COX-1 inhibition at the initial concentrations: 10^−3 M and 10^−4 M; for inhibition at 10 µM: 10^−5 M; for inhibition at 1 µM: 10^−6 M; for inhibition at 0.1 µM: 10^−7 M; for inhibition at 0.01 µM: 10^−8 M; for inhibition at 0.001 µM: 10^−9 M
T1 construct: purchased BioVision (Milpitas, CA, USA) K548-100
Experimental: (§1) Inhibitory potency of the compounds on COX-1 and COX-2 enzymes was determined by using fluorimetric COX-1 and COX-2 inhibition screening kits from BioVision (Milpitas, CA, USA). The experimental protocol as described in the guides provided by the supplier was followed. All of the pipetting were performed using a robotized system to increase speed, accuracy and precision. Fluorescence intensities of the samples were kinetically measured at 25 °C for 5–10 min by monitoring emissions at 587 nm after excitation at 535 nm. Two appropriate points (T1 and T2) in the linear range of the plot were chosen and the corresponding fluorescence values (RFU1 and RFU2) were obtained. The slope for all samples including Enzyme Control (EC) was calculated by dividing the net ΔRFU (RFU2 − RFU1) values by the time ΔT (T2 − T1). Percentage of relative inhibition was calculated by using the following equation:% Relative inhibition = (Slope of EC − Slope of S/Slope of EC) × 100 where S is the term representing the tested compound [51, 52]. […] The IC50 values were calculated using the plots of the enzyme activity against concentrations by applying regression analyses.

COX-2 = target: T2, COX-2 (Homo sapiens, UniProt P35354); assay: Fluorimetric COX-2 inhibition screening kit (BioVision); details: for COX-2 inhibition at the initial concentrations: 10^−3 M and 10^−4 M; for inhibition at 10 µM: 10^−5 M; for inhibition at 1 µM: 10^−6 M, read-out: COX 2 Inhibition %; for inhibition at 0.1 µM: 10^−7 M; for inhibition at 0.01 µM: 10^−8 M; for inhibition at 0.001 µM: 10^−9 M
T2 construct: purchased BioVision (Milpitas, CA, USA) K547-100
T2 sequence (P35354 18-604): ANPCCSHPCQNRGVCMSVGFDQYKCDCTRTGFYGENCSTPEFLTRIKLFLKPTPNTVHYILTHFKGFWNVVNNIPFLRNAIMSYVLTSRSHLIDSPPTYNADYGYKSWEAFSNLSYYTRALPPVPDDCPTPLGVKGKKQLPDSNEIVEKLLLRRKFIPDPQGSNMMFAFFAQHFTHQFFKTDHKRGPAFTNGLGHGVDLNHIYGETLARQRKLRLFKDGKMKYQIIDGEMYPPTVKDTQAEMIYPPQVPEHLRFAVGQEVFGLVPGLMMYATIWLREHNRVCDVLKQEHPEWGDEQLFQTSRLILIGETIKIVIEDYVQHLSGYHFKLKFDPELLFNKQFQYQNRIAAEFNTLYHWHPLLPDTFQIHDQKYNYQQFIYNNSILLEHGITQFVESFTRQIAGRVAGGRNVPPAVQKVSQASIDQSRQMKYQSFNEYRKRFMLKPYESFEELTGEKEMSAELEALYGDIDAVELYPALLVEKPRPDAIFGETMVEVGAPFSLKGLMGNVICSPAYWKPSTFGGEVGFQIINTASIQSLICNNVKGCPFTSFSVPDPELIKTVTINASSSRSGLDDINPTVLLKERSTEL
Experimental: as §1

AChE = AChE (Homo sapiens, UniProt P22303)
Experimental: Inhibition potency of the test compounds against AChE was determined using Ellman’s method. Enzyme solutions were prepared in gelatin solution (1%, w/v), at the concentration of 2.5 units/mL. […] AChE solution (20 µL/well) and test solution (20 µL/well) were added to phosphate buffer solution (140 µL/well, pH 8.0 ± 0.1), and incubated at 25 °C for 5 min. […] The production of the yellow anion was recorded by multimode microplate reader for 10 min at 412 nm. As a control, an identical solution of the enzyme without the inhibitor was processed. The control and the inhibitor readings were corrected with blank-readings. All processes were assayed in four independent determinations.

human recombinant MAO-A = target: T3, human recombinant MAO-A (Homo sapiens, UniProt P21397); assay: MAO inhibition assay (kynuramine, fluorimetric)
T3 sequence (P21397 1-527): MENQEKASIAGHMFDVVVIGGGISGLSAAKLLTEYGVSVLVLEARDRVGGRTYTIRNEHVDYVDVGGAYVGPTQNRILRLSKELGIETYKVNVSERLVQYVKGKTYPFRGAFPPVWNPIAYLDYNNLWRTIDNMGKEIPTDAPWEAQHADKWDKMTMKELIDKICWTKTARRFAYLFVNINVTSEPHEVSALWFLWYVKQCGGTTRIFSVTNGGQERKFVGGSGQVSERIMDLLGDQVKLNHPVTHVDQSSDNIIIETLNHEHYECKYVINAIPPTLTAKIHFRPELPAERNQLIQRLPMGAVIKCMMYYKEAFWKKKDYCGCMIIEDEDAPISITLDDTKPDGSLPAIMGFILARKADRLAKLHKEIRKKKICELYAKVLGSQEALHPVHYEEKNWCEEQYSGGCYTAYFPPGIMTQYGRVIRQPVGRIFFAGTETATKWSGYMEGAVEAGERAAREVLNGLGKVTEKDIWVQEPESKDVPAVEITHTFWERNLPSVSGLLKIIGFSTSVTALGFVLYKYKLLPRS
Experimental: (§2) Enzyme activity assays were performed according to the procedure reported by Matsumoto et al. with slight modifications. In order to prevent the destructive effect of light on MAO enzymes, the assays were performed in 96-well black plates. Phosphate buffer solution (0.1 M, pH = 7.4) was used for preparation of stock solutions (5 mg/mL) of both human recombinant MAO-A and MAO-B enzymes. […] The addition of the test compound solution was followed by addition of either MAO-A or MAO-B enzyme (50 μL/well) solutions. After 10 min of incubation at 37 °C, kynuramine (50 μL/well) was added and enzyme-substrate reaction was initiated. The plate was incubated for 20 min at 37 °C and then reaction was terminated by addition of 2 N NaOH (75 μL/well). The fluorimetric reads from the top was performed at 310 nm excitation and 380 nm emission wavelengths.

human recombinant MAO-B = target: T4, human recombinant MAO-B (Homo sapiens, UniProt P27338); assay: MAO inhibition assay (kynuramine, fluorimetric)
T4 sequence (P27338 1-520): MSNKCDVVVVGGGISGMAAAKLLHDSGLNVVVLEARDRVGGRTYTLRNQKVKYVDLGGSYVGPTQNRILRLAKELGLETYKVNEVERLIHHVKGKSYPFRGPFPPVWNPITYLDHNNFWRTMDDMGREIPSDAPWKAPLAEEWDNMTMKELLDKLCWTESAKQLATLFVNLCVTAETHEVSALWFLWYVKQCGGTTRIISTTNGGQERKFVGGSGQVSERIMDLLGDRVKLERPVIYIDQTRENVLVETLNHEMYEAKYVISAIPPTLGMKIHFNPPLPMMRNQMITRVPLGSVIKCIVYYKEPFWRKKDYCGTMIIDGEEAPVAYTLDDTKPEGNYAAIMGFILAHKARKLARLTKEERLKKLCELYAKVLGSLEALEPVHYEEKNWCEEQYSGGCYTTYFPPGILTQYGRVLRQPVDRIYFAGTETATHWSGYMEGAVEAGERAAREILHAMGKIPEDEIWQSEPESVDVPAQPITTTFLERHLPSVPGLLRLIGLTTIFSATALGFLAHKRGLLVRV
Experimental: as §2

T1 sequence (P05979 25-600): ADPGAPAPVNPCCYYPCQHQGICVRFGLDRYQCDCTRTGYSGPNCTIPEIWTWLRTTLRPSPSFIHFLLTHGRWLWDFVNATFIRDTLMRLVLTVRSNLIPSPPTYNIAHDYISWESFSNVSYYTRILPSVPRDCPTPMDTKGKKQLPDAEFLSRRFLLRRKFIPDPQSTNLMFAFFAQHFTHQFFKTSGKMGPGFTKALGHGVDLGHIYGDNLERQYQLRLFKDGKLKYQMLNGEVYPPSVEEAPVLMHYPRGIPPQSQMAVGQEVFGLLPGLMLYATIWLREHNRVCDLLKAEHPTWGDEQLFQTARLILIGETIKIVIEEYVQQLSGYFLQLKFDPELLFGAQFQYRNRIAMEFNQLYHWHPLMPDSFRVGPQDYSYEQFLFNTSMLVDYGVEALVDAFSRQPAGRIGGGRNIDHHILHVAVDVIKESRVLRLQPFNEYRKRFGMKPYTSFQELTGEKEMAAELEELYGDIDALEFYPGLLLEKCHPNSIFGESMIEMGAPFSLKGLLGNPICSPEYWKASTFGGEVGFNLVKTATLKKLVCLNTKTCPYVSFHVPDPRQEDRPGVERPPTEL
AChE, sequence (P22303 32-614): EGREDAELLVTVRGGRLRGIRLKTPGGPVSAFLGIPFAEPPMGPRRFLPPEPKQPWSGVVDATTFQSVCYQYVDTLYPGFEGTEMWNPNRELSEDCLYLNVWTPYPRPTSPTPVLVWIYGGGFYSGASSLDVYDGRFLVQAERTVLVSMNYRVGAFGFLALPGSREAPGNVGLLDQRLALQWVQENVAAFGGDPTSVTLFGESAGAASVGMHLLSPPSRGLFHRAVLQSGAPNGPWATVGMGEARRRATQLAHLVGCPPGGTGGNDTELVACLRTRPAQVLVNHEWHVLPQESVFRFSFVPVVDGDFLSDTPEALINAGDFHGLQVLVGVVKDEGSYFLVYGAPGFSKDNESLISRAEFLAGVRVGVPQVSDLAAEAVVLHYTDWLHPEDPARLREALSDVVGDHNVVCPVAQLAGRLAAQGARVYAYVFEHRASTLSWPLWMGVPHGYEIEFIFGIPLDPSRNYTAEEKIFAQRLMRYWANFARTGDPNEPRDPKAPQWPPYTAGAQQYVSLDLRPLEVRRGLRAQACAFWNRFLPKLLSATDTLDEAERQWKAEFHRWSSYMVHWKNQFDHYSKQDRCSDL

Row | Compound | COX-1 Inhibition (%) (COX-1; 10^-3 M) | COX-1 Inhibition (%) (COX-1; 10^-4 M) | COX-2 Inhibition (%) (COX-2; 10^-3 M) | COX-2 Inhibition (%) (COX-2; 10^-4 M) | AChE Inhibition (%) (AChE; 10^-3 M) | AChE Inhibition (%) (AChE; 10^-4 M) | MAO-A Inhibition (%) (human recombinant MAO-A; 10^-3 M) | MAO-A Inhibition (%) (human recombinant MAO-A; 10^-4 M) | MAO-B Inhibition (%) (human recombinant MAO-B; 10^-3 M) | MAO-B Inhibition (%) (human recombinant MAO-B; 10^-4 M) | further results
1 | c1ccc(COc2ccc(-c3nc4ccccc4n3CCN3CCOCC3)cc2)cc1 [Compound 2f, 2-(4-Benzyloxyphenyl)-1-[2-(morpholin-4-yl)ethyl]-1H-benzimidazole] | 75.37 | 79.08 | 61.23 | 60.20 | 15.75 | 15.75 | 32.14 | 20.65 | 39.32 | 31.14 | IC50 (COX-1): 43.2 µM; COX-1 inhibition at the initial concentrations (COX-1): more than 50%; inhibition at 10 µM (COX-1): 45.4 ± 0.99%; inhibition at 1 µM (COX-1): 42.1 ± 0.87%; inhibition at 0.1 µM (COX-1): 34.2 ± 0.76%; inhibition at 0.01 µM (COX-1): 32.7 ± 0.78%; inhibition at 0.001 µM (COX-1): 29.9 ± 0.68%; IC50 (COX-2): 44.9 µM; COX-2 inhibition at the initial concentrations (COX-2): more than 50%; inhibition at 10 µM (COX-2): 47 ± 1.13%; inhibition at 1 µM (COX-2): 40.2 ± 1.24%; inhibition at 0.1 µM (COX-2): 35.6 ± 0.91%; inhibition at 0.01 µM (COX-2): 31.5 ± 0.84%; inhibition at 0.001 µM (COX-2): 28.7 ± 0.63%
2 | c1ccc(-c2ccc(-c3nc4ccccc4n3CCN3CCOCC3)cc2)cc1 [Compound 2o, 2-(1,1’-Biphenyl)-1-[2-(morpholin-4-yl)ethyl]-1H-benzimidazole] | 27.63 | 34.00 | 30.76 | 21.48 | 6.33 | 6.33 | 31.85 | 26.19 | 31.12 | 23.54 | 
3 | N#Cc1ccc(-c2nc3ccccc3n2CCN2CCOCC2)cc1 [Compound 2k, 2-(4-Cyanophenyl)-1-[2-(morpholin-4-yl)ethyl]-1H-benzimidazole] | 28.63 | 28.13 | 26.39 | 20.46 | 20.45 | 20.45 | 31.99 | 26.86 | 43.22 | 34.29 | 
4 | Fc1ccc(-c2nc3ccccc3n2CCN2CCOCC2)cc1 [Compound 2d, 2-(4-Fluorophenyl)-1-[2-(morpholin-4-yl)ethyl]-1H-benzimidazole] | 31.87 | 29.36 | 21.08 | 28.46 | 16.20 | 16.20 | 39.79 | 33.11 | 45.29 | 38.96 | 
5 | CN(C)c1ccc(-c2nc3ccccc3n2CCN2CCOCC2)cc1 [Compound 2i, 2-(4-Dimethylaminophenyl)-1-[2-(morpholin-4-yl)ethyl]-1H-benzimidazole] | 30.08 | 22.62 | 18.47 | 25.76 | 7.54 | 7.54 | 26.91 | 19.20 | 22.17 | 14.43 | 
6 | FC(F)(F)c1ccc(-c2nc3ccccc3n2CCN2CCOCC2)cc1 [Compound 2l, 2-(4-Trifluoromethylphenyl)-1-[2-(morpholin-4-yl)ethyl]-1H-benzimidazole] | 36.87 | 33.46 | 21.00 | 34.62 | 33.88 | 33.88 | 38.51 | 30.16 | 47.66 | 38.09 | 
7 | CSc1ccc(-c2nc3ccccc3n2CCN2CCOCC2)cc1 [Compound 2n, 2-(4-Methylthiophenyl)-1-[2-(morpholin-4-yl)ethyl]-1H-benzimidazole] | 39.42 | 32.78 | 30.08 | 33.46 | 12.21 | 12.21 | 32.73 | 24.05 | 34.75 | 32.24 | 
8 | CCN(CC)c1ccc(-c2nc3ccccc3n2CCN2CCOCC2)cc1 [Compound 2h, 2-(4-Diethylaminophenyl)-1-[2-(morpholin-4-yl)ethyl]-1H-benzimidazole] | 75.21 | 78.21 | 56.20 | 57.08 | 10.49 | 10.49 | 36.71 | 23.16 | 45.58 | 36.16 | IC50 (COX-1): 43 µM; COX-1 inhibition at the initial concentrations (COX-1): more than 50%; inhibition at 10 µM (COX-1): 46.3 ± 1.09%; inhibition at 1 µM (COX-1): 40.9 ± 0.99%; inhibition at 0.1 µM (COX-1): 35.6 ± 0.81%; inhibition at 0.01 µM (COX-1): 30.8 ± 0.93%; inhibition at 0.001 µM (COX-1): 24.2 ± 0.72%; IC50 (COX-2): 51.2 µM; COX-2 inhibition at the initial concentrations (COX-2): more than 50%; inhibition at 10 µM (COX-2): 47.5 ± 1.08%; inhibition at 1 µM (COX-2): 42.6 ± 1.16%; inhibition at 0.1 µM (COX-2): 31.8 ± 0.99%; inhibition at 0.01 µM (COX-2): 28.4 ± 0.82%; inhibition at 0.001 µM (COX-2): 23 ± 0.68%
